Source: ChEMBL document CHEMBL5096219, “Design, synthesis and biological evaluation of novel pyrazinone derivatives as PI3K/HDAC dual inhibitors” (Bioorg Med Chem, 2022)

What was measured:
MV4-11 [1] = assay: Induction of apoptosis in human MV4-11 cells assessed as early apoptotic cells at 450 nM incubated for 48 hrs by Annexin V-FITC/PI staining based flow cytometry (reference value: 0.95%); type: functional
MV4-11 [2] = assay: Induction of apoptosis in human MV4-11 cells assessed as total apoptotic cells at 150 nM incubated for 48 hrs by Annexin V-FITC/PI staining based flow cytometry (reference value: 2.99%); type: functional
MV4-11 [3] = assay: Induction of cell cycle arrest in human MV4-11 cells assessed as accumulation of cells at G2/M phase at 150 nM incubated for 48 hrs by […]PI staining based flow cytometry (reference value: 11.5%); type: functional
MV4-11 [4] = assay: Induction of apoptosis in human MV4-11 cells assessed as necrotic cells at 450 nM incubated for 48 hrs by Annexin V-FITC/PI staining based flow cytometry (reference value: 0.51%); type: functional
HGC-27 = assay: Antiproliferative activity against human HGC-27 cells assessed as inhibition of cell proliferation incubated for 72 hrs by MTT assay; type: functional, cell-based; settings: HGC-27, 72 h
MV4-11 [5] = assay: Induction of apoptosis in human MV4-11 cells assessed as necrotic cells at 50 nM incubated for 48 hrs by Annexin V-FITC/PI staining based flow cytometry (reference value: 0.51%); type: functional
MV4-11 [6] = assay: Induction of apoptosis in human MV4-11 cells assessed as viable cells at 450 nM incubated for 48 hrs by Annexin V-FITC/PI staining based flow cytometry (reference value: 96.5%); type: functional; settings: read-out: Activity
MV4-11 [7] = assay: Induction of cell cycle arrest in human MV4-11 cells assessed as accumulation of cells at S phase at 50 nM incubated for 48 hrs by […]PI staining based flow cytometry (reference value: 45.5%); type: functional
MV4-11 [8] = assay: Induction of apoptosis in human MV4-11 cells assessed as late apoptotic cells at 150 nM incubated for 48 hrs by Annexin V-FITC/PI staining based flow cytometry (reference value: 2.04%); type: functional
MV4-11 [9] = assay: Induction of apoptosis in human MV4-11 cells assessed as early apoptotic cells at 50 nM incubated for 48 hrs by Annexin V-FITC/PI staining based flow cytometry (reference value: 0.95%); type: functional
MV4-11 [10] = assay: Induction of apoptosis in human MV4-11 cells assessed as viable cells at 150 nM incubated for 48 hrs by Annexin V-FITC/PI staining based flow cytometry (reference value: 96.5%); type: functional; settings: read-out: Activity
[11] = molecular target: T1, Protein deacetylase HDAC6 (Homo sapiens) (UniProt Q9UBN7); settings: dose 100.0 nM
T1 sequence (whole entry): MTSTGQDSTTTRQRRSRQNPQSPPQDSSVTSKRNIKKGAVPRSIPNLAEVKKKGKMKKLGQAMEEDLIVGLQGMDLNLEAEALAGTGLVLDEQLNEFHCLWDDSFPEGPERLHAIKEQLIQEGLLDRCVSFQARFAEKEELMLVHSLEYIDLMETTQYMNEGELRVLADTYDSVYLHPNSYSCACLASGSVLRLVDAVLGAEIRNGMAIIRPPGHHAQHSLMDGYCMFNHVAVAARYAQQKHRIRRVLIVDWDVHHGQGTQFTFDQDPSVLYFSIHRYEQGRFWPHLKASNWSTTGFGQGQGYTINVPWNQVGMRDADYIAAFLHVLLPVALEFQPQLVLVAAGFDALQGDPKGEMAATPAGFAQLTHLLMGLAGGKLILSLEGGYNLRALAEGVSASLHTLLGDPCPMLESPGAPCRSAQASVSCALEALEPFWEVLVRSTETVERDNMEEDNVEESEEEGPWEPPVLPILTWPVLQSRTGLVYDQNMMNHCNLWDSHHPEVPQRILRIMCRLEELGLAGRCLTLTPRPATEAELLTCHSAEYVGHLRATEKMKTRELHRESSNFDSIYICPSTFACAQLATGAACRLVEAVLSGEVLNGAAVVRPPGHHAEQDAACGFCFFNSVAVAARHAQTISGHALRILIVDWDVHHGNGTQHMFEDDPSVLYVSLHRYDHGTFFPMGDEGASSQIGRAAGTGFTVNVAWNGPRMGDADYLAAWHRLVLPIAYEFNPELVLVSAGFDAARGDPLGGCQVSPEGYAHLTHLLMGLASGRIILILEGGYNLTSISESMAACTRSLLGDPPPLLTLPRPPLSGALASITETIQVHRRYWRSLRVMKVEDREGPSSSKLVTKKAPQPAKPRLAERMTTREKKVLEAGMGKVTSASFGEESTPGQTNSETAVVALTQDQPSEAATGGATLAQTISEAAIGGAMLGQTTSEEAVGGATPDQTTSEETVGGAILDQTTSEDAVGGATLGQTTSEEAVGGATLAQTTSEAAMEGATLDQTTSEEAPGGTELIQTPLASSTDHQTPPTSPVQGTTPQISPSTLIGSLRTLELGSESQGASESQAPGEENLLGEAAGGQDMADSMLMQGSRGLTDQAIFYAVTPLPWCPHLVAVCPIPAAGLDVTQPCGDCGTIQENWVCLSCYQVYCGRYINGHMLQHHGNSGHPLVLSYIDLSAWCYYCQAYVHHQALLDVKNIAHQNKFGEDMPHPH
Description: Inhibition of HDAC6 (unknown origin) at 100 nM

MV4-11 [12] = assay: Induction of apoptosis in human MV4-11 cells assessed as total apoptotic cells at 50 nM incubated for 48 hrs by Annexin V-FITC/PI staining based flow cytometry (reference value: 2.99%); type: functional
MCF7 = assay: Antiproliferative activity against human MCF7 cells assessed as inhibition of cell proliferation incubated for 72 hrs by MTT assay; type: functional, cell-based; settings: MCF7, 72 h
MV4-11 [13] = assay: Induction of cell cycle arrest in human MV4-11 cells assessed as accumulation of cells at G2/M phase at 50 nM incubated for 48 hrs by […]PI staining based flow cytometry (reference value: 11.5%); type: functional
MV4-11 [14] = assay: Induction of cell cycle arrest in human MV4-11 cells assessed as accumulation of cells at S phase at 1350 nM incubated for 48 hrs by […]PI staining based flow cytometry (reference value: 45.5%); type: functional
MV4-11 [15] = assay: Induction of apoptosis in human MV4-11 cells assessed as early apoptotic cells at 150 nM incubated for 48 hrs by Annexin V-FITC/PI staining based flow cytometry (reference value: 0.95%); type: functional
HCT-116 = assay: Antiproliferative activity against human HCT-116 cells assessed as inhibition of cell proliferation incubated for 72 hrs by MTT assay; type: functional, cell-based; settings: HCT-116, 72 h

## O=C(NO)c1ccc(Cn2cc(-c3cccc4[nH]ncc34)nc(N3CCOCC3)c2=O)cc1
MV4-11 [1]
  Activity: 34.6%
MV4-11 [2]
  Activity: 16.94%
MV4-11 [3]
  Activity: 32.9%
MV4-11 [4]
  Activity: 0.69%
HGC-27
  IC50: 880 nM
MV4-11 [5]
  Activity: 0.34%
MV4-11 [6]
  viability at 0.45 µM: 18.7%
MV4-11 [7]
  Activity: 37.8%
MV4-11 [8]
  Activity: 14.5%
MV4-11 [9]
  Activity: 3.53%
MV4-11 [10]
  viability at 0.15 µM: 79.6%
[11]
  inhibition: 90%
MV4-11 [12]
  Activity: 7.2%
MCF7
  IC50: 400 nM
MV4-11 [13]
  Activity: 24.6%
MV4-11 [14]
  Activity: 25.2%
MV4-11 [15]
  Activity: 2.44%
HCT-116
  IC50: 16400 nM
